The values below come from US20220340597A1, “HEXAHYDRO-1H-PYRAZINO[1,2-A]PYRAZINE COMPOUNDS FOR THE TREATMENT OF AUTOIMMUNE DISEASE” (Hoffmann-La Roche Inc., priority 2019, published 2022).

The structures appear in SMILES notation. A value given as a limit tells only on which side of the number the result lay.

In general, IC20 refers to the point of the concentration-response curve where the effect stands at 20%. Higher therefore signals weaker potency.

One series addresses T1, human TLR7 (Homo sapiens, UniProt Q9NYK1).
T1 construct: host or cells: HEK293 (HEK-Blue hTLR7)
T1 sequence (Q9NYK1 27-1049): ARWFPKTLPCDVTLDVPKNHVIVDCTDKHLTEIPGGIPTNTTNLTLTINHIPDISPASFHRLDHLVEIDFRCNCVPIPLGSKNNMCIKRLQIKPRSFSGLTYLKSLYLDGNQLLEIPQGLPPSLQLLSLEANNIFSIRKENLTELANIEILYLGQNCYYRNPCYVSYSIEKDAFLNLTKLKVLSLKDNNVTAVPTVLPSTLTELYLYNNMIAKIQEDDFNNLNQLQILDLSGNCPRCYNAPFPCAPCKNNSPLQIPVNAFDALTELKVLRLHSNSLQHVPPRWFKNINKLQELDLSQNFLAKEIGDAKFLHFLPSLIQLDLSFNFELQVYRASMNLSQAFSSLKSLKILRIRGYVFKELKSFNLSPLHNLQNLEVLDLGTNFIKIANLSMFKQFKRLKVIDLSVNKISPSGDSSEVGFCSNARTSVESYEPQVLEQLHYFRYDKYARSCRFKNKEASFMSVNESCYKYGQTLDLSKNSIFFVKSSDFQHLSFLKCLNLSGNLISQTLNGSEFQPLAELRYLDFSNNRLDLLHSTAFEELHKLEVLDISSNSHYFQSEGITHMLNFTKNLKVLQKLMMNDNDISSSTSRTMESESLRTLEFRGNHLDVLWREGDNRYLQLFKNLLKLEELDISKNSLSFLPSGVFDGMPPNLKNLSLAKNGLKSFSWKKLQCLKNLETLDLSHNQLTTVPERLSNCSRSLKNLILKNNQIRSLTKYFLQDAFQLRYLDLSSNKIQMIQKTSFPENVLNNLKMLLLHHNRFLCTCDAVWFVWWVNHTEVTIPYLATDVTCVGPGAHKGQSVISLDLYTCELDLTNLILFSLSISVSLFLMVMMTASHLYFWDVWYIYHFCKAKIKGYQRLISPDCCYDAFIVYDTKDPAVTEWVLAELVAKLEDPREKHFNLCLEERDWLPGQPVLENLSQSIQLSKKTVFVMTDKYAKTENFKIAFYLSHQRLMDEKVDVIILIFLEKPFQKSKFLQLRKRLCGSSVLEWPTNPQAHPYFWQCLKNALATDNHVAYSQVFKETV
The experiment in a line: HEK293-Blue-hTLR-7 cells assay. In kind it is cell-based. As to conditions: HEK293-Blue-hTLR7 cells, R848 stimulation, 20 hrs, SEAP reporter; read-out: HEK/hTLR7 IC50.
For the molecule `[2H]c1ccc2c(N3C[C@@H]4CN(Cc5ccc(N6CC7(CN(C)C7)C6)nc5C)CCN4[C@H](C)C3)ccc(C#N)c2n1` [Example 80, 5-[(4R,9aS)-4-methyl-8-[[2-methyl-6-(6-methyl-2,6-diazaspiro[3.3]heptan-2-yl)-3-pyridyl]methyl]-3,4,6,7,9,9a-hexahydro-1H-pyrazino[1,2-a]pyrazin-2-yl]-2-deuterio-quinoline-8-carbonitrile], the IC50 was 23 nM. As to `C[C@@H]1CN(c2ccc(C#N)c3ncccc23)C[C@@H]2CN(Cc3ccnc(N4CCNCC4)c3)CCN21` (relative stereo) [Example 3], the IC50 is 20 nM. For `[2H]c1ccc2c(N3C[C@@H]4CN(c5ncc(N6C[C@@H]7C[C@H]6CN7)cc5C)CCN4[C@H](C)C3)ccc(C#N)c2n1` [Example 95, 5-[(4R,9aR)-8-[5-[(1S,4S)-2,5-diazabicyclo[2.2.1]heptan-2-yl]-3-methyl-2-pyridyl]-4-methyl-3,4,6,7,9,9a-hexahydro-1H-pyrazino[1,2-a]pyrazin-2-yl]-2-deuterio-quinoline-8-carbonitrile], the IC50 is 2 nM.

For `Cc1nc(N2CCNC[C@@H]2C)ccc1CN1CCN2[C@@H](C1)CN(c1ccc(C#N)c3ncccc13)C[C@H]2C` [Example 85, 5-[(4R,9aS)-4-methyl-8-[[2-methyl-6-[(2S)-2-methylpiperazin-1-yl]-3-pyridyl]methyl]-3,4,6,7,9,9a-hexahydro-1H-pyrazino[1,2-a]pyrazin-2-yl]quinoline-8-carbonitrile], the IC50 worked out at 19 nM. On the same count and under the same terms, the same measure for `[2H]c1ccc2c(N3C[C@@H]4CN(Cc5cnc(N6CCNCC6)cc5C)CCN4[C@H](C)C3)ccc(C#N)c2n1` [Example 87, 5-[(4R,9aS)-4-methyl-8-[(4-methyl-6-piperazin-1-yl-3-pyridyl)methyl]-3,4,6,7,9,9a-hexahydro-1H-pyrazino[1,2-a]pyrazin-2-yl]-2-deuterio-quinoline-8-carbonitrile]: 17 nM; for `[2H]c1ccc2c(N3C[C@@H]4CN(Cc5ccc(N6CC[C@@](C)(N)C6)nc5C)CCN4[C@H](C)C3)ccc(C#N)c2n1` [Example 81, 5-[(4R,9aS)-8-[[6-[(3R)-3-amino-3-methyl-pyrrolidin-1-yl]-2-methyl-3-pyridyl]methyl]-4-methyl-3,4,6,7,9,9a-hexahydro-1H-pyrazino[1,2-a]pyrazin-2-yl]-2-deuterio-quinoline-8-carbonitrile]: 16 nM; for `[2H]c1ccc2c(N3C[C@@H]4CN(Cc5cnc(N6C[C@@H]7C[C@H]6CN7)cc5C)CCN4[C@H](C)C3)ccc(C#N)c2n1` [Example 94, 5-[(4R,9aS)-8-[[6-[(1S,4S)-2,5-diazabicyclo[2.2.1]heptan-2-yl]-4-methyl-3-pyridyl]methyl]-4-methyl-3,4,6,7,9,9a-hexahydro-1H-pyrazino[1,2-a]pyrazin-2-yl]-2-deuterio-quinoline-8-carbonitrile]: 25 nM. On the same count and under the same terms, next, `[2H]c1ccc2c(N3C[C@@H]4CN(c5ncc(N6C[C@@H](N)[C@H](OC)C6)cc5C)CCN4[C@H](C)C3)ccc(C#N)c2n1` [Example 99, 5-[(4R,9aR)-8-[5-[(3R,4R)-3-amino-4-methoxy-pyrrolidin-1-yl]-3-methyl-2-pyridyl]-4-methyl-3,4,6,7,9,9a-hexahydro-1H-pyrazino[1,2-a]pyrazin-2-yl]-2-deuterio-quinoline-8-carbonitrile]: 1 nM.

Consider `[2H]c1ccc2c(N3C[C@@H]4CN(Cc5ccc(N6CC7CCC(C6)N7)nc5C)CCN4[C@H](C)C3)ccc(C#N)c2n1` [Example 91, 5-[(4R,9aS)-8-[[6-(3,8-diazabicyclo[3.2.1]octan-3-yl)-2-methyl-3-pyridyl]methyl]-4-methyl-3,4,6,7,9,9a-hexahydro-1H-pyrazino[1,2-a]pyrazin-2-yl]-2-deuterio-quinoline-8-carbonitrile], for which the IC50 is 15 nM. Same read-out and setting: the same measure for `Cc1nc(N2CCN[C@H](C)C2)ccc1CN1CCN2[C@@H](C1)CN(c1ccc(C#N)c3ncccc13)C[C@H]2C` [Example 86, 5-[(4R,9aS)-4-methyl-8-[[2-methyl-6-[(3R)-3-methylpiperazin-1-yl]-3-pyridyl]methyl]-3,4,6,7,9,9a-hexahydro-1H-pyrazino[1,2-a]pyrazin-2-yl]quinoline-8-carbonitrile]: 15 nM. Regarding `[2H]c1ccc2c(N3C[C@@H]4CN(Cc5nc(N6CCNCC6)ccc5C)CCN4[C@H](C)C3)ccc(C#N)c2n1` [Example 88, 5-[(4R,9aS)-4-methyl-8-[(3-methyl-6-piperazin-1-yl-2-pyridyl)methyl]-3,4,6,7,9,9a-hexahydro-1H-pyrazino[1,2-a]pyrazin-2-yl]-2-deuterio-quinoline-8-carbonitrile], the IC50 was determined as 40 nM.

`[2H]c1ccc2c(N3C[C@@H]4CN(Cc5ccc(N6CC7CC(C6)N7)nc5C)CCN4[C@H](C)C3)ccc(C#N)c2n1` [Example 90, 5-[(4R,9aS)-8-[[6-(3,6-diazabicyclo[3.1.1]heptan-3-yl)-2-methyl-3-pyridyl]methyl]-4-methyl-3,4,6,7,9,9a-hexahydro-1H-pyrazino[1,2-a]pyrazin-2-yl]-2-deuterio-quinoline-8-carbonitrile]: the IC50 is 13 nM. Same read-out and setting: the same measure for `[2H]c1ccc2c(N3C[C@@H]4CN(CCc5ccc(N6CC[C@@](C)(N)C6)nc5)CCN4[C@H](C)C3)ccc(C#N)c2n1` [Example 84, 5-[(4R,9aS)-8-[2-[6-[(3R)-3-amino-3-methyl-pyrrolidin-1-yl]-3-pyridyl]ethyl]-4-methyl-3,4,6,7,9,9a-hexahydro-1H-pyrazino[1,2-a]pyrazin-2-yl]-2-deuterio-quinoline-8-carbonitrile]: 16 nM; for `[2H]c1ccc2c(N3C[C@@H]4CN(c5ncc(N6C[C@@H](N)[C@@H](OC)C6)cc5C)CCN4[C@H](C)C3)ccc(C#N)c2n1` [Example 96, 5-[(4R,9aR)-8-[5-[(3R,4S)-3-amino-4-methoxy-pyrrolidin-1-yl]-3-methyl-2-pyridyl]-4-methyl-3,4,6,7,9,9a-hexahydro-1H-pyrazino[1,2-a]pyrazin-2-yl]-2-deuterio-quinoline-8-carbonitrile]: 2 nM. Turning to `[2H]c1ccc2c(N3C[C@@H]4CN(CCc5ccnc(N6C[C@@H](N)[C@@H](F)C6)c5)CCN4[C@H](C)C3)ccc(C#N)c2n1` [Example 89, 5-[(4R,9aS)-8-[2-[2-[(3R,4S)-3-amino-4-fluoro-pyrrolidin-1-yl]-4-pyridyl]ethyl]-4-methyl-3,4,6,7,9,9a-hexahydro-1H-pyrazino[1,2-a]pyrazin-2-yl]-2-deuterio-quinoline-8-carbonitrile], the IC50 was found to be 28 nM. With `[2H]c1ccc2c(N3C[C@@H]4CN(c5ncc(N6C[C@H]7NCCO[C@@H]7C6)cc5C)CCN4[C@H](C)C3)ccc(C#N)c2n1` [Example 100, 5-[(4R,9aR)-8-[5-[(4aR,7aR)-3,4,4a,5,7,7a-hexahydro-2H-pyrrolo[3,4-b][1,4]oxazin-6-yl]-3-methyl-2-pyridyl]-4-methyl-3,4,6,7,9,9a-hexahydro-1H-pyrazino[1,2-a]pyrazin-2-yl]-2-deuterio-quinoline-8-carbonitrile], the IC50 was 1 nM. For the molecule `[2H]c1ccc2c(N3C[C@@H]4CN(c5ncc(N6CC[C@@](C)(N)C6)cc5C)CCN4[C@H](C)C3)ccc(C#N)c2n1` [Example 97, 5-[(4R,9aR)-8-[5-[(3R)-3-amino-3-methyl-pyrrolidin-1-yl]-3-methyl-2-pyridyl]-4-methyl-3,4,6,7,9,9a-hexahydro-1H-pyrazino[1,2-a]pyrazin-2-yl]-2-deuterio-quinoline-8-carbonitrile], the IC50 was 2 nM.

In the next series the target is T2, hERG channel (Homo sapiens, UniProt Q12809).
T2 construct: expressed in transfected cells; host or cells: CHO (Chinese hamster ovary), CHOhERG
T2 sequence (Q12809 whole entry): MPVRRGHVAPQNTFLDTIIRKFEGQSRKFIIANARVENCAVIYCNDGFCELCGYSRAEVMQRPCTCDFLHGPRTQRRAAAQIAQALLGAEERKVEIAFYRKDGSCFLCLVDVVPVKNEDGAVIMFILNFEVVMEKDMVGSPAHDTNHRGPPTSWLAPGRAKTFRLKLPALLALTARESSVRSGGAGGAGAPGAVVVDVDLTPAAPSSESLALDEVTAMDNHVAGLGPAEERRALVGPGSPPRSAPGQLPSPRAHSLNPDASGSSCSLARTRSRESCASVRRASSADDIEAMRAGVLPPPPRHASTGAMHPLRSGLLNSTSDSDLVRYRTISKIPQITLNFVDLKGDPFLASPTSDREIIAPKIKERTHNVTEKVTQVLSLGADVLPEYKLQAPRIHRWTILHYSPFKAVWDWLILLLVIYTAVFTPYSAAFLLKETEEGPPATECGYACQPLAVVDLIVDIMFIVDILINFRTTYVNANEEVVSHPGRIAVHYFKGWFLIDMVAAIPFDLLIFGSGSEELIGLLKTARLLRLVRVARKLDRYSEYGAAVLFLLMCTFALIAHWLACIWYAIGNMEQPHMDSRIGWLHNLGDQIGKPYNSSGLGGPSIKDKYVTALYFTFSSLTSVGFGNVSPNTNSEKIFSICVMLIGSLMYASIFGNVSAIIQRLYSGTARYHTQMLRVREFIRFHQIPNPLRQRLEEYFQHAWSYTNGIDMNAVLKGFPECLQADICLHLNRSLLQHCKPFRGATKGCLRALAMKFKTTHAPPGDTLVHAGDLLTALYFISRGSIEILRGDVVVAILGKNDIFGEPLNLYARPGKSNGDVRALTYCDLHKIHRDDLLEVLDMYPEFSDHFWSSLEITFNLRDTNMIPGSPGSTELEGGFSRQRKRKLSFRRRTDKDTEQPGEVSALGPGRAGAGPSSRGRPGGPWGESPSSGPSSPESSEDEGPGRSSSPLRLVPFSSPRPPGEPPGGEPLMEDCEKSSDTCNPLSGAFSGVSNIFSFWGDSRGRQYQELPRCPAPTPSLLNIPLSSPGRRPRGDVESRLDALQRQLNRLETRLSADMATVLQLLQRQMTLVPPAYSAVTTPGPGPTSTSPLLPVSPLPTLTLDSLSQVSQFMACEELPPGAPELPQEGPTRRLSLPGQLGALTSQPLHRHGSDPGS
The experiment in a line: hERG channel inhibition assay (patch-clamp, CHOhERG cells). The series is classed as cell-based. The conditions noted are these: CHOhERG cells, whole-cell patch-clamp. Summed up: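 Whole-cell voltage-clamp recordings of IKhERG in CHO cells stably expressing human hERG, stimulated at 0.1 Hz. Compound applied at rising concentrations, each held 3–10 min to reach steady state; current amplitude and kinetics compared with pre-drug control set as 100%.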
`[2H]c1ccc2c(N3C[C@@H]4CN(Cc5ccc(N6CC7(CN(C)C7)C6)nc5C)CCN4[C@H](C)C3)ccc(C#N)c2n1` [Example 80, 5-[(4R,9aS)-4-methyl-8-[[2-methyl-6-(6-methyl-2,6-diazaspiro[3.3]heptan-2-yl)-3-pyridyl]methyl]-3,4,6,7,9,9a-hexahydro-1H-pyrazino[1,2-a]pyrazin-2-yl]-2-deuterio-quinoline-8-carbonitrile] had an IC50 above 20000 nM.

The series is the same for the next values; noted with them: human, CHO cells stably expressing hERG (CHOhERG); CHOhERG cells, whole-cell patch-clamp.
For the molecule `[2H]c1ccc2c(N3C[C@@H]4CN(Cc5ccc(N6CC7(CN(C)C7)C6)nc5C)CCN4[C@H](C)C3)ccc(C#N)c2n1` [Example 80, 5-[(4R,9aS)-4-methyl-8-[[2-methyl-6-(6-methyl-2,6-diazaspiro[3.3]heptan-2-yl)-3-pyridyl]methyl]-3,4,6,7,9,9a-hexahydro-1H-pyrazino[1,2-a]pyrazin-2-yl]-2-deuterio-quinoline-8-carbonitrile], the IC20 is above 10000 nM.

The same series, now with this note: safety ratio.
For `[2H]c1ccc2c(N3C[C@@H]4CN(Cc5ccc(N6CC7(CN(C)C7)C6)nc5C)CCN4[C@H](C)C3)ccc(C#N)c2n1` [Example 80, 5-[(4R,9aS)-4-methyl-8-[[2-methyl-6-(6-methyl-2,6-diazaspiro[3.3]heptan-2-yl)-3-pyridyl]methyl]-3,4,6,7,9,9a-hexahydro-1H-pyrazino[1,2-a]pyrazin-2-yl]-2-deuterio-quinoline-8-carbonitrile], the “hERG IC20/TLR7 IC50” value was above 434, the “hERG IC20/TLR8 IC50” value was above 2000 and the “hERG IC20/TLR9 IC50” value is above 312.
